Experimental data from the NIST ThermoML archive (doi:10.1016/j.fluid.2016.08.035).
± gives the expanded uncertainty stated by the source.

What was measured:
[1] = xn = mol fraction of the nth substance listed; conditions: 101 kPa, Liquid; for mass density: Vibrating tube method; for viscosity: Falling or rolling sphere viscometry; for speed of sound: Sing-around technique in a fixed-path interferometer
[2] = molar heat capacity at constant pressure; xn = mol fraction of the nth substance listed; conditions: 101 kPa, Liquid, DSC

CC12CCC(CC1)C(C)(C)O2 [1,3,3-trimethyl-2-oxabicyclo[2.2.2]octane] + CCCCCCCCCC
Conditions	mass density, 318.15 K [kg/m3]	mass density, 338.15 K [kg/m3]	molar heat capacity at constant pressure, 278.15 K [J/K/mol]	molar heat capacity at constant pressure, 298.15 K [J/K/mol]	molar heat capacity at constant pressure, 318.15 K [J/K/mol]	molar heat capacity at constant pressure, 338.15 K [J/K/mol]	speed of sound, 338.15 K [m/s]	viscosity, 338.15 K [mPa·s]
[1], x1 = 0.1066	728.29 ± 0.24	712.7 ± 0.25	–	–	–	–	1081.8 ± 1.5	0.58 ± 0.04
[1], x1 = 0.2007	744.21 ± 0.24	728.49 ± 0.24	–	–	–	–	1083.9 ± 1.5	0.6 ± 0.04
[1], x1 = 0.2965	760.92 ± 0.24	745.06 ± 0.24	–	–	–	–	1087.1 ± 1.5	0.64 ± 0.04
[1], x1 = 0.4063	780.75 ± 0.24	764.73 ± 0.24	–	–	–	–	1091.2 ± 1.5	0.69 ± 0.04
[1], x1 = 0.5005	798.4 ± 0.24	782.2 ± 0.24	–	–	–	–	1094.9 ± 1.5	0.73 ± 0.04
[1], x1 = 0.5959	816.88 ± 0.24	800.51 ± 0.24	–	–	–	–	1099.3 ± 1.5	0.79 ± 0.04
[1], x1 = 0.7007	837.92 ± 0.24	821.36 ± 0.24	–	–	–	–	1105.3 ± 1.5	0.88 ± 0.04
[1], x1 = 0.7989	858.42 ± 0.24	841.62 ± 0.24	–	–	–	–	1111.3 ± 1.5	0.98 ± 0.04
[1], x1 = 0.8956	879.33 ± 0.24	862.32 ± 0.24	–	–	–	–	1118.5 ± 1.5	1.1 ± 0.04
[1], x1 = 1	902.84 ± 0.23	885.57 ± 0.23	–	–	–	–	1126.7 ± 1.5	1.27 ± 0.04
[2], x1 = 0.1066	–	–	299.16 ± 12	308.32 ± 12	318.26 ± 12	328.92 ± 13	–	–
[2], x1 = 0.2007	–	–	293.5 ± 11	303.12 ± 12	313.35 ± 12	324.19 ± 13	–	–
[2], x1 = 0.2965	–	–	287.99 ± 11	298.17 ± 12	308.63 ± 12	319.65 ± 12	–	–
[2], x1 = 0.4063	–	–	282.04 ± 11	292.62 ± 11	303.32 ± 12	314.6 ± 12	–	–
[2], x1 = 0.5005	–	–	277.25 ± 11	288.12 ± 11	298.96 ± 12	310.38 ± 12	–	–
[2], x1 = 0.5959	–	–	272.59 ± 11	283.78 ± 11	294.7 ± 11	306.21 ± 12	–	–
[2], x1 = 0.7007	–	–	267.96 ± 10	279.2 ± 11	290.19 ± 11	301.78 ± 12	–	–
[2], x1 = 0.7989	–	–	263.81 ± 10	275.24 ± 11	286.17 ± 11	297.82 ± 12	–	–
[2], x1 = 0.8956	–	–	259.87 ± 10	271.44 ± 11	282.47 ± 11	294.23 ± 11	–	–
[2], x1 = 1	–	–	256.14 ± 9.9	267.69 ± 10	278.65 ± 11	290.33 ± 11	–	–
